Measurements from patent US20260355171A1, “INHIBITORS AND USES THEREFOR” (priority 2022, published 2026).
Read-outs that look alike come from different tables or passages of the source.

Assays:
[1] = Unbound fraction (fu) in mouse plasma; format: in vitro ADME
[2] = Mouse pharmacokinetics, IV administration; format: in vivo
Protocol: Pharmacokinetic parameters of compound 22 (prepared in accordance with Example 2) were determined following intravenous (IV, 3 mg/kg) and intraperitoneal (IP, 10 mg/kg) administration to male C57BL/6 mice.
IV and IP formulations were prepared separately by dissolving solid compound 22 in dimethyl sulfoxide (DMSO) prior to addition of 50 mM phosphate buffered saline (pH 6.5) using vortexing and sonication to produce a colourless solution, and giving a final DMSO concentration of 5% (v/v) for each formulation. The IV formulation was filtered through a 0.22 μm syringe filter prior to dosing, whereas the IP formulation was not filtered.
(§1) The pharmacokinetics of compound 22 was studied in non-fasted male C57BL/6 mice weighing 21.1-26.5 g. Mice had access to food and water ad libitum throughout the pre- and post-dose sampling period.
(§2) Compound 22 was dosed to mice by bolus injection into the lateral tail vein (2 mL/kg) for IV administration and by injection into the IP cavity (5 mL/kg) for IP administration. After dosing, blood samples were collected up to 24 h (n=3 mice per time point) with a maximum of three samples from each mouse via submandibular bleed (approximately 120 μL). No urine samples were collected as mice were housed in bedded cages. Blood was collected into polypropylene Eppendorf tubes containing heparin as anticoagulant. Once collected, blood samples were centrifuged immediately, supernatant plasma was removed, and stored at −80 °C until analysis by liquid chromatography-mass spectrometry (LC-MS). A summary of the bioanalytical method is included in Table 5.
Concentrations of test compound in plasma and tissue samples were determined using a liquid chromatography with tandem mass spectrometry (LCMS/MS) method validated for linearity, accuracy, precision, matrix factor and recovery (refer to Table 5).
Plasma: The plasma calibration curve was prepared by spiking aliquots of blank mouse plasma (25 μL) with test compound standard solutions (5 μL) and internal standard solution (5 μL of diazepam, 5 μg/mL in 50% acetonitrile in water). Test plasma samples (25 μL) were thawed, mixed and then spiked with internal standard solution (5 μL). Plasma protein precipitation was performed by addition of acetonitrile (3-fold volume ratio) and thorough vortex mixing. Samples were centrifuged (RCF=9391×g) for 3 minutes and the supernatant (100 μL) was collected for analysis. The analysis of blood/plasma (B/P) partitioning samples was conducted similarly as for the plasma samples, using protein precipitation with acetonitrile as described above.
The plasma concentration versus time profile was defined by the average plasma concentration at each sample time, and PK parameters were calculated using non-compartmental methods (PKSolver Version 2.0). Standard calculations for each pharmacokinetic parameter are listed below.

[3] = tested on: primary neurons; assay: Neuronal cell death in the presence of H2O2; format: cell-based, mouse; conditions: 1 or 10 μM compound, 100 μM H2O2
Protocol: Primary neurons were treated with 0.4, 1, 2, 10 or 50 μM of compound 2 or compound 22 (prepared according to Example 2). NSP5 was added to primary neurons at DIV11, and compound 2 or 22 was added 48 hours later. Cells were treated with propidium iodide 48 hours after compound addition. Cells were washed with PBS and fixed with 4% PFA. Cells were then washed and stained with DAPI. Images of cells were taken with ZEISS Axioscan 7 microscope slide scanner. Cell death was determined by Image J analysis, counting the death cell (red, PI)) vs all cells (blue, DAPI).
One hour after compound addition (1 or 10 μM of compound 2 or compound 22) neurons were treated with a cytotoxic agent (100 μM N-methyl-D-aspartate (NMDA), 100 μM H2O2 or 5 μM staurosporine). One hour after treatment with the cytotoxic agent, the media was replaced with fresh media and the neurons were incubated for 24 hours. A final concentration of 1 μM propidium iodide (PI) was added into the well and incubated for 5 mins. Cells were washed with phosphate-buffered saline (PBS) and then fixed with 4% PFA. Cells were then washed and stained with DAPI, and cell death determined as described above.

[4] = In vivo whole blood-to-plasma ratio; conditions: IV 3 mg/kg, 1 h post dose, mouse blood, n=3; read-out: B/P ratio (whole blood-to-plasma)
Protocol: As part of the assessment of the IV pharmacokinetics, blood was collected from mice (n=3) at 1 h post dose for the purposes of determining the whole blood-to-plasma (B/P) ratio.
Blood was collected via cardiac puncture (whilst under gaseous isoflurane anaesthesia) into tubes containing heparin. The haematocrit was determined via centrifugation [13000×g for 4 min using a Clemets® Microhematocrit centrifuge (Clements, Rydalmere, Australia) and Safecap® Plain Self-sealing Mylar Wrapped capillary tubes (Safe-Tec Clinical Products LLC, Broomall, USA)], and values ranged from 32% to 36% for blood samples across the three mice.
Each blood aliquot (25 μL) was collected and matrix matched with an equivalent volume of blank plasma. The remainder of the blood sample was centrifuged and 1×25 μL plasma aliquot was collected and matrix matched with an equivalent volume of blank blood. Samples were frozen on dry ice and subsequently stored at −80 °C until analysis by LC-MS. The B/P ratio was calculated on the basis of the LC-MS response of compound 22 in blood and plasma following centrifugation of whole blood and the average B/P ratio (n=3 mice) is reported.

[5] = tested on: PHP.B hSyn-NSP5-V5 adeno-associated virus; assay: Rota-rod motor testing; format: in vivo, mouse; conditions: 10 mg/kg daily, three-day testing, 15-17 days post AAV, vs Paxlovid
Protocol: (§3) In vivo testing was performed on 5-month-old female C57BL/6 wildtype mice injected intravenously with PHP.B hSyn-NSP5-V5 adeno-associated virus (AAV) and treated daily with compound 22 (10 mg/kg), Paxlovid (nirmatrelvir/ritonavir) (10 mg/kg nirmatrelvir: 3.33 mg/kg ritonavir) or a vehicle control (n=10 per group).
(§4) Motor testing was performed on the Rota-rod five times daily over a three-day testing period as previously described (refer to Ke et al. (2015) Acta Neuropathol, 130: 661-678). Motor coordination was also assessed using the hanging wire test at 14 and 22 days post injection with the AAV, which assessed the time hanging upside down on a wire grid (refer to Chan et al. (2020) Am J Path, 190(8): 1713-1722). Anxiety, disinhibition and exploratory behaviour was assessed using the elevated plus maze (EPM) test as previously described (refer to Ke et al. (2015) Acta Neuropathol, 130: 661-678).

[6] = tested on: PHP.B hSyn-NSP5-V5 adeno-associated virus; assay: Hanging wire test; format: in vivo, mouse; conditions: 10 mg/kg daily, vs Paxlovid and vehicle
Protocol: as §3, §4

[7] = Adverse reactions in pharmacokinetic study; format: in vivo, mouse; conditions: 24-hour sampling period, IV 3 mg/kg and IP 10 mg/kg
Protocol: as §1, §2

Q: Which fraction unbound [1] does the source give for NC(=O)C1CCN(c2ncccc2CNCc2cccc3[nH]ccc23)CC1 [Compound 22] here?
A: 0.547

Q: What about the “Apparent blood volume of distribution” value ([2]; IV 3 mg/kg) of the same compound?
A: high

Q: And the Blood clearance ([2]; IV 3 mg/kg)?
A: moderate

Q: And the “Duration of measurable plasma concentrations” value ([2]; IV 3 mg/kg)?
A: 24 h

Q: And the “In vivo blood clearance relative to nominal hepatic blood flow” value ([2]; IV 3 mg/kg, mouse)?
A: ~ 50%

Q: And the “In vivo hepatic extraction ratio” value ([2]; IV 3 mg/kg, assuming predominantly hepatic clearance)?
A: moderate

Q: What about the clearance ([2]; mouse, blood, IV 3 mg/kg, extrapolation to infinity, approximation only, read-out: Blood CL) of the same compound?
A: 60.6 mL/min/kg

Q: And the Vd ([2]; mouse, blood, IV 3 mg/kg, extrapolation to infinity, approximation only, read-out: Blood VSS)?
A: 16.6 L/kg

Q: And the half-life ([2]; mouse, plasma, iv, 3 mg/kg, male C57BL/6 mice, terminal phase not clearly defined, approximation only, read-out: Apparent t1/2 (converted))?
A: ~14 h

Q: And the AUC(0-t) ([2]; mouse, plasma, IV 3 mg/kg, male C57BL/6 mice, read-out: Plasma AUC0-last)?
A: 1.51 µM·h

Q: What about the AUC(0-inf) ([2]; mouse, plasma, IV 3 mg/kg, extrapolation to infinity, approximation only, read-out: Plasma AUC0-inf) of the same compound?
A: 1.62 µM·h

Q: And the clearance ([2]; mouse, plasma, IV 3 mg/kg, extrapolation to infinity, approximation only, read-out: Plasma CL)?
A: 84.9 mL/min/kg

Q: What about the Vd ([2]; mouse, plasma, IV 3 mg/kg, extrapolation to infinity, approximation only, read-out: Plasma VSS) of the same compound?
A: 23.3 L/kg

Q: What about the “Protection from H2O2-induced neurotoxicity” value [3] of the same compound?
A: did not protect

Q: And the blood plasma ratio at 1 h [4]?
A: 1.4

Q: And the “Rota-rod average time of five daily trials” value [5]?
A: performed significantly better than Paxlovid-treated mice

Q: What about the “Rota-rod maximum time of five daily trials” value [5] of the same compound?
A: performed significantly better than Paxlovid-treated mice

Q: What about the “Hanging wire test, mice reaching maximum time” value ([6]; 14 days post AAV) of the same compound?
A: more compound 22-treated mice reaching the maximum time

Q: And the “Hanging wire test, mice reaching maximum time” value ([6]; 22 days post AAV)?
A: more compound 22-treated mice reaching the maximum time

Q: What about the “Adverse reactions or compound-related side effects” value [7] of the same compound?
A: no adverse reactions or compound-related side effects observed
